Assay results from patent US9085576B2 (AMGEN INC., priority 2013, dated 2015).

How the values were obtained:
Cathepsin D (Cat D) = Cathepsin D (Cat D) (Homo sapiens (Human), UniProt P07339); assay: In vitro enzymatic Cathepsin D (Cat D) FRET assay; format: biochemical; settings: read-out: CatD IC50
[1] = biological target: Beta Secretase enzyme (BACE) (Homo sapiens (Human), UniProt P56817); assay: In vitro enzymatic BACE FRET assay; format: biochemical; settings: read-out: BACE1 Enzyme assay IC50
Sequence of Beta Secretase enzyme (BACE) (P56817 46-501): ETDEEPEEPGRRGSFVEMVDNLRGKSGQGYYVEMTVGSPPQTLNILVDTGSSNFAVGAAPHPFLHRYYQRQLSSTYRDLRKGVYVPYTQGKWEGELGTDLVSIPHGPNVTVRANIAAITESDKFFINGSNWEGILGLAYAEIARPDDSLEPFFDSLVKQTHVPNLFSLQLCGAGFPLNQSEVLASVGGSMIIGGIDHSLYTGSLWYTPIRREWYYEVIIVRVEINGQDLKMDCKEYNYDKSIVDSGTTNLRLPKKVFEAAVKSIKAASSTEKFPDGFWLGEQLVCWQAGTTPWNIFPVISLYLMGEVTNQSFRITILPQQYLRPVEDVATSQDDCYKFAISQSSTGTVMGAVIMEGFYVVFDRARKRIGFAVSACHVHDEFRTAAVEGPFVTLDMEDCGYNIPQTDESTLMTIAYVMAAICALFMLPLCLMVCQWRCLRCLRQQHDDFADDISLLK

BACE = BACE (Homo sapiens (Human), UniProt P56817); assay: In vitro BACE cell-based assay (Aβ40 in conditioned medium, sandwich ELISA)
Sequence of BACE (P56817 46-501, species assumed): as the sequence (P56817 46-501) above

Sequence of Cathepsin D (Cat D) (P07339 65-412, species assumed): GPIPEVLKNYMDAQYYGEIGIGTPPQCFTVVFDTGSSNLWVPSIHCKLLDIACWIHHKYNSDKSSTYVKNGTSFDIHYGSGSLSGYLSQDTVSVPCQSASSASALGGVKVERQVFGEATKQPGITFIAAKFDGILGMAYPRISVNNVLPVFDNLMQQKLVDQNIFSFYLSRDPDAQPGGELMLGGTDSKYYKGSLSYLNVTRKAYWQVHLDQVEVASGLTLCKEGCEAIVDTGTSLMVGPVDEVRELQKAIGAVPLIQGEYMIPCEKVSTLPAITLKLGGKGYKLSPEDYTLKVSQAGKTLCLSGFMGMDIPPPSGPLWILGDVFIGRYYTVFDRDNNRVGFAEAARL

Row | SMILES | IC50 (Cathepsin D (Cat D)) [µM] | IC50 [1] [nM] | IC50 (BACE) [µM]
1 | C[C@H](C(=O)Nc1ccc(F)c([C@@]2(C(F)F)N=C(N)O[C@@H]3C[C@@H]32)c1)c1ccc(Cl)cc1 (mixture of isomers) [Example 252, N-(3-((1R,5S,6R)-3-amino-5-(difluoromethyl)-2-oxa-4-azabicyclo[4.1.0]hept-3-en-5-yl)-4-fluorophenyl)-2-(4-chlorophenyl) propanamide] | 270 | > 40000 | > 15.6
2 | COc1cnc2c(Nc3ccc(F)c([C@]4(CF)N=C(N)O[C@H]5C[C@H]54)c3F)nccc2n1 [Example 354, (1S,5R,6S)-5-(2,6-difluoro-3-((2-methoxypyrido[3,4-b]pyrazin-5-yl)amino)phenyl)-5-(fluoromethyl)-2-oxa-4-azabicyclo[4.1.0]hept-3-en-3-amine] | 292 | 12600 | 1.46
3 | COc1cnc(C(=O)Nc2ccc(F)c([C@@]3(C(F)F)N=C(N)O[C@@H]4C[C@@H]43)c2)c(OC)n1 [Example 84, N-(3-((1R,5S,6R)-3-amino-5-(difluoromethyl)-2-oxa-4-azabicyclo[4.1.0]hept-3-en-5-yl)-4-fluorophenyl)-3,5-dimethoxypyrazine-2-carboxamide] | > 400 | 494 | 0.361
4 | NC1=N[C@@](c2cc(-c3nnc(-c4ccc(F)cc4)[nH]3)ccc2F)(C(F)F)[C@H]2C[C@H]2O1 [Example 440, (1R,5S,6R)-5-(difluoromethyl)-5-(2-fluoro-5-(5-(4-fluorophenyl)-4H-1,2,4-triazol-3-yl)phenyl)-2-oxa-4-azabicyclo[4.1.0]hept-3-en-3-amine] | 250 | > 40000 | > 15.6
5 | COc1cnc(C(=O)Nc2ccc(Cl)c([C@@]3(C(F)F)N=C(N)O[C@@H]4C[C@@H]43)c2)nc1 [Example 104, N-(3-((1R,5S,6R)-3-amino-5-(difluoromethyl)-2-oxa-4-azabicyclo[4.1.0]hept-3-en-5-yl)-4-chlorophenyl)-5-methoxypyrimidine-2-carboxamide] | 374 | 87.3 | 0.0339
6 | NC1=N[C@](CF)(c2cc(NC(=O)c3nn(C(F)F)cc3Cl)cnc2F)[C@H]2C[C@H]2O1 [Example 207, N-(5-((1R,5S,6R)-3-amino-5-(fluoromethyl)-2-oxa-4-azabicyclo[4.1.0]hept-3-en-5-yl)-6-fluoropyridin-3-yl)-4-chloro-1-(difluoromethyl)-1H-pyrazole-3-carboxamide] | 370 | 57.8 | 0.0176
7 | NC1=N[C@@](c2cc(NC(=O)c3coc(C(F)F)n3)ccc2F)(C(F)F)[C@H]2C[C@H]2O1 [Example 150, N-(3-((1R,5S,6R)-3-amino-5-(difluoromethyl)-2-oxa-4-azabicyclo[4.1.0]hept-3-en-5-yl)-4-fluorophenyl)-2-(difluoromethyl)oxazole-4-carboxamide 2,2,2-trifluoroacetate] | 238 | 32.2 | 0.0182
8 | CC#CCOc1cnc(C(=O)Nc2cc(F)c(F)c([C@@]3(CF)N=C(N)O[C@@H]4C[C@@H]43)c2)cn1 [Example 35, N-(3-((1R,5S,6R)-3-amino-5-(fluoromethyl)-2-oxa-4-azabicyclo[4.1.0]hept-3-en-5-yl)-4,5-difluorophenyl)-5-(but-2-yn-1-yloxy)pyrazine-2-carboxamide] | 256 | 1.6 | 0.0006
9 | Cc1cc(C(F)(F)F)cnc1C(=O)Nc1ccc(Cl)c([C@@]2(C(F)F)N=C(N)O[C@@H]3C[C@@H]32)c1 [Example 217, N-(3-((1R,5S,6R)-3-amino-5-(difluoromethyl)-2-oxa-4-azabicyclo[4.1.0]hept-3-en-5-yl)-4-chlorophenyl)-3-methyl-5-(trifluoromethyl) picolinamide] | 206 | 15.1 | 0.0116
10 | COc1cnc(C(=O)Nc2cc(F)c(Cl)c([C@]3(CF)N=C(N)O[C@H]4C[C@H]43)c2)cn1 [Example 155] | 647 | > 40000 | > 15.6
11 | NC1=N[C@@](c2cc(NC(=O)c3ccc(Br)cn3)ccc2Cl)(C(F)F)[C@H]2C[C@H]2O1 [Example 214, N-(3-((1R,5S,6R)-3-amino-5-(difluoromethyl)-2-oxa-4-azabicyclo[4.1.0]hept-3-en-5-yl)-4-chlorophenyl)-5-bromopicolinamide] | 459 | 9.3 | 0.0132
12 | NC1=N[C@](CF)(c2cc(NC(=O)c3ncc(Cl)cc3F)ccc2Cl)[C@H]2C[C@H]2O1 [Example 442, N-(3-((1R,5S,6R)-3-amino-5-(fluoromethyl)-2-oxa-4-azabicyclo[4.1.0]hept-3-en-5-yl)-4-chlorophenyl)-5-chloro-3-fluoropicolinamide] | 1140 | 54.4 | 0.0134
13 | NC1=N[C@](CF)(c2cc(NC(=O)c3nn(C(F)F)cc3Cl)cc(F)c2F)[C@H]2C[C@H]2O1 [Example 46, N-(3-((1R,5S,6R)-3-amino-5-(fluoromethyl)-2-oxa-4-azabicyclo[4.1.0]hept-3-en-5-yl)-4,5-difluorophenyl)-4-chloro-1-(difluoromethyl)-1H-pyrazole-3-carboxamide] | 174 | 18 | 0.0046
14 | COC[C@H](C)NC(=O)c1ccc(F)c([C@]2(C(F)F)N=C(N)O[C@H]3C[C@H]32)c1 [Example 427, 3-((1S,5R,6S)-3-Amino-5-(difluoromethyl)-2-oxa-4-azabicyclo[4.1.0]hept-3-en-5-yl)-4-fluoro-N—((S)-1-methoxypropan-2-yl)benzamide] | > 400 | > 40000 | > 15.6
15 | COC[C@]1(c2cc(NC(=O)c3ccc(Cl)cn3)ccc2F)N=C(N)O[C@@H]2C[C@@H]21 [Example 82, N-(3-((1R,5S,6R)-3-amino-5-(methoxymethyl)-2-oxa-4-azabicyclo[4.1.0]hept-3-en-5-yl)-4-fluorophenyl)-5-chloropicolinamide] | > 400 | 2740 | 0.157

Second part, the compound after the results:

Row | IC50 (Cathepsin D (Cat D)) [µM] | IC50 [1] [nM] | IC50 (BACE) [µM] | SMILES
16 | 477 | 14.4 | 0.0737 | N#Cc1cnc(C(=O)Nc2ccc(F)c([C@@]3(C(F)F)N=C(N)O[C@@H]4C[C@@H]43)c2)c(C(F)F)c1 [Example 395, N-(3-((1R,5S,6R)-3-amino-5-(difluoromethyl)-2-oxa-4-azabicyclo[4.1.0]hept-3-en-5-yl)-4-fluorophenyl)-5-cyano-3-(difluoromethyl)picolinamide]
17 | 103 | 51.5 | 0.524 | N#Cc1cnc2c(Nc3cc(F)c(F)c([C@@]4(C(F)F)N=C(N)O[C@@H]5C[C@@H]54)c3)ncc(F)c2c1 [Example 367, 8-((3-((1R,5S,6R)-3-amino-5-(difluoromethyl)-2-oxa-4-azabicyclo[4.1.0]hept-3-en-5-yl)-4,5-difluorophenyl)amino)-5-fluoro-1,7-naphthyridine-3-carbonitrile]
18 | 1070 | 414 | 0.536 | CC(F)(F)Oc1ccc(C(=O)Nc2ccc(F)c([C@@]3(C(F)F)N=C(N)O[C@@H]4C[C@@H]43)c2)nc1 [Example 191, N-(3-((1R,5S,6R)-3-amino-5-(difluoromethyl)-2-oxa-4-azabicyclo[4.1.0]hept-3-en-5-yl)-4-fluorophenyl)-5-(1,1-difluoroethoxy) picolinamide]
19 | 274 | 114 | 0.331 | NC1=N[C@](c2cc(NC(=O)c3ccc(Cl)cn3)cnc2F)(C(F)F)[C@@H]2C[C@@H]2O1 (racemic) [Example 73, N-(5-([1(R,S),5(S,R),6(R,S)]-3-amino-5-(difluoromethyl)-2-oxa-4-azabicyclo[4.1.0]hept-3-en-5-yl)-6-fluoropyridin-3-yl)-5-chloropicolinamide]
20 | 260 | 50.6 | 0.0073 | Cc1cc(C#N)cnc1C(=O)Nc1cc(Cl)c(F)c([C@@]2(CF)N=C(N)O[C@@H]3C[C@@H]32)c1 [Example 91, N-(3-((1R,5S,6R)-3-amino-5-(fluoromethyl)-2-oxa-4-azabicyclo[4.1.0]hept-3-en-5-yl)-5-chloro-4-fluorophenyl)-5-cyano-3-methylpicolinamide]
21 | 323 | 375 | 0.918 | CC(C)Oc1cnc2c(Nc3cc(Cl)c(F)c([C@@]4(CF)N=C(N)O[C@@H]5C[C@@H]54)c3)nccc2n1 [Example 357, (1R,5S,6R)-5-(3-chloro-2-fluoro-5-((2-isopropoxypyrido[3,4-b]pyrazin-5-yl)amino)phenyl)-5-(fluoromethyl)-2-oxa-4-azabicyclo[4.1.0]hept-3-en-3-amine]
22 | 79.4 | 124 | 0.268 | NC1=N[C@@](c2cc(Nc3ncnc4cc(C(F)(F)F)cnc34)ccc2F)(C(F)F)[C@H]2C[C@H]2O1 [Example 449, (1R,5S,6R)-5-(difluoromethyl)-5-(2-fluoro-5-((7-(trifluoromethyl)pyrido[3,2-d]pyrimidin-4-yl)amino)phenyl)-2-oxa-4-azabicyclo[4.1.0]hept-3-en-3-amine]
23 | 706 | 732 | 1 | CC(C)Oc1cnc(C(=O)Nc2ccc(F)c([C@@]3(C(F)F)N=C(N)O[C@@H]4C[C@@H]43)c2)cn1 [Example 147, N-(3-((1R,5S,6R)-3-amino-5-(difluoromethyl)-2-oxa-4-azabicyclo[4.1.0]hept-3-en-5-yl)-4-fluorophenyl)-5-isopropoxypyrazine-2-carboxamide]
24 | 421 | 46.7 | 0.0891 | CC#Cc1ccc(C(=O)Nc2ccc(F)c([C@@]3(C(F)F)N=C(N)O[C@@H]4C[C@@H]43)c2)nc1 [Example 314, N-(3-((1R,5S,6R)-3-amino-5-(difluoromethyl)-2-oxa-4-azabicyclo[4.1.0]hept-3-en-5-yl)-4-fluorophenyl)-5-(prop-1-yn-1-yl)picolinamide]
